Data reported in patent publication US20070044168A1, “Transplantable tumor model” (Northwestern University, priority 2005, published 2007).

Test system: clonal CB1 zebrafish
Assay: Tumor induction by continuous immersion in DEN solution
Type: in vivo
Conditions: 100 ppm DEN immersion for 8 weeks
Procedure: Tumor induction. Sixty-five 2.5-month-old fish from the clonal CB1 line were used for tumor induction by continuous immersion in N-nitrosodiethylamine (DEN) solution (100 ppm) during the 8 weeks. During DEN, exposure fish were maintained in 20-L acrylic tanks equipped with a mechanical filter and an automatic heater. The filters were cleaned twice weekly. The complete exchange of water containing the carcinogen was done every 2 weeks. The water temperature was maintained at 26±0.5° C. Following completion of DEN exposure the fish were transferred to a 20-L system tank and remained under observation for up to 9 months.
The grossly visible tumors began to emerge in fish 3 to 7 months after the beginning of exposure to DEN. Four spontaneous tumors diagnosed as acinar cell carcinomas of the pancreas were detected in 10.5- to 18-month-old female CB1 fish (See, e.g., FIG. 1G).

CCN(CC)N=O [DEN, N-nitrosodiethylamine]
emergence of grossly visible tumors after the beginning of exposure (CB1 fish): 3 to 7 months | primary tumors localized in the abdominal area (sixty-five 2.5-month-old CB1 fish, observed up to 9 months): 35
